The values below come from patent US20220154153A1, “NEW INHIBITORS OF LRRK2/PP1 INTERACTION” (Université de Paris, priority 2019, published 2022).

“Also recorded” adds a separate entry of the source.

The test system of one assay is LRRK2/PP1 interaction. In words: In vitro competition assay of LRRK2/PP1 interaction (LRRK2 immunoprecipitates from MDA-MB231 lysates, anti-PP1 Western blot). It is filed as binding, human. The note with it: 1 mM peptide, 30 min, room temperature; compared with non-competed immunoprecipitates. The protocol:
In Vitro Protein/Protein Interaction Competition
The PP1/LRRK2 interaction was competed using the peptides of the invention. Lysates from MDA-MB231 cells were immunoprecipitated with anti-LRRK2 antibody (overnight, 4° C.) and protein A/G Sepharose was added for 1 h at 4° C. The PP1/LRRK2 interaction was competed with 1 mM of the peptide for 30 min at room temperature. After several washing steps, immunoprecipitates were transferred to nitrocellulose and blotted with anti PP1 antibody (Santa Cruz Biotechnology). As internal control, the blot was also blotted with anti-LRRK2 antibody (Invitrogene).
Immunoprecipitation and Western Blotting
Cells (5×10^6) were lysed for 20 min at 4° C. in lysis buffer (50 mM Tris pH8, 1% NP40, 137 mM NaCl, 1 mM MgCl2, 1 mM CaCl2), 10% glycerol and protease inhibitor mixture). Lysates (500 μg) were immunoprecipitated with the appropriated antibody overnight at 4° C. and protein A/G sepharose was added for 1 h at 4° C. After washing with 1×TBST (20 mM Tris HCl pH7.5, 150 mM NaCl, 0.05% Tween 20) immunoprecipitates were separated by SDS-PAGE, transferred to nitrocellulose, blocked (5% non-fat dry milk in TBST) and incubated with the primary antibody (Santa Cruz Biotehnology). The membrane was washed and incubated with PO-conjugates secondary antibody (Dako). Protein detection was performed using the ECL system.
Background: A western blot detects proteins with antibodies after separation by electrophoresis.

The subject of assay [1] is MDA-MB231 cells. Nature of the assay: Detection of apoptosis by Annexin-V-FITC staining in cancer cells. It is filed as cell-based, human. To be noted: 25 μM peptide, 24 h of treatment. The protocol: Detection of Apoptosis by Annexin-V-FITC Staining
Apoptosis was determined using Annexin-V FITC (eBiosciences) as described by the manufacturer. Briefly, cells were washed in 1× binding buffer, centrifuged and resuspended in 100 μl of 1× binding buffer containing Annexin-V FITC and propidium iodide. After incubation for 15 min, cells were analyzed by flow cytometry. Data acquired by FACS Canto were analyzed with Diva 60 software. Each condition was analyzed in triplicate. The effect of peptide treatment was compared to untreated control cells.

For the next assay, the system named is PBMC from CLL patients. Nature of the assay: Internalization of FITC-labelled peptides in PBMC from chronic lymphocytic leukemia (CLL) patients (FACS). It is filed as cell-based, human. The note with it: 4 h, 37° C.; for FITC labelled cells detected (FACS): PBMC of CLL, 50 μM FITC labelled peptide. As to the method: (§1) Isolation and Culture of Primary Cells
(§2) Fresh blood from healthy donors (HD) was obtained from Etablissement Francais du Sang. Chronic lymphocytic leukemia (CLL) patient samples were obtained from the Department of Hematology. Peripheral blood mononuclear cells (PBMC) from HD and CLL patients were prepared by Ficoll gradient centrifugation. Cells were maintained in RPMI 1640 supplemented with 10% of FCS, 1% non-essential amino acids, 1% Hepes, 1% sodium pyruvate and 1% glutamine. All the experimental protocols as well as the human blood samples isolation were approved by the Ethical Committee of the Hospital in accordance with the National Guide of the Ministry of Health.
(§3) In addition to cell lines, the internalization of the new peptides according to the invention was further tested in peripheral blood mononuclear cells (PBMC) from healthy donors and chronic lymphocytic leukemia (CLL) patients. PBMC from both were incubated with 50 μM of both peptides for 4 h at 37° C.

The test system of a further assay is PBMC from healthy donors. Nature of the assay: Internalization of FITC-labelled peptides in PBMC from healthy donors (FACS). It is filed as cell-based, human. The note with it: 4 h, 37° C.; for FITC labelled cells detected (FACS): PBMC of healthy human, 50 μM FITC labelled peptide. As to the method:
as §1, §2, §3

Assay [2] relates to MDA-MB231 cells. Nature of the assay: Internalization of FITC-labelled peptides in MDA-MB231 cell line (FACS). In kind it is cell-based, human. To be noted: different concentrations, 4 h, compared to peptide 13. As to the method:
Quantification of Cellular Internalization
Human cell line MDA-MB231 was seeded in 24 well plate (1×10^5 cells/well) and treated with different concentrations of FITC-labelled peptides for different periods of time. After treatment, cells were harvested and washed twice with PBS to remove the extracellular unbound peptide and resuspended in 200 μl of PBS. FITC fluorescence intensity of internalized peptides was measured by flow cytometry. Untreated cells were used as control.

Turning to “VKKKKIKAEIKI (Synthetic construct vectorization (or carrier) peptide disclosed in WO/2016/156536) [shuttle, optimized cell penetrating peptide used alone as control, reference compound]”, the “PP1 detected in LRRK2 immunoprecipitates after competition with peptide (Western blot)” value (from here on “PP1 detected in LRRK2 immunoprecipitates”) in the assay on LRRK2/PP1 interaction is listed as “PP1 is detected; also recorded: no difference”. In addition, in the assay on MDA-MB231 cells [1], the “Apoptosis induction (Annexin-V)” value was “do not show apoptosis”.
“VKKKKIKAEIKIPMGFWSRLINRLLEISPY (Synthetic construct Seq_29 fused to seq_7) [peptide 13]”: the “FITC labelled cells detected (FACS)” value with PBMC from CLL patients and in the assay with PBMC from healthy donors was “majority of FITC labelled cells is detected” in each case. In addition, the “PP1 detected in LRRK2 immunoprecipitates” value with LRRK2/PP1 interaction was “low detected; also recorded: important decrease in PP1 detected”. Besides, the “Apoptosis induction (Annexin-V)” value in the assay on MDA-MB231 cells [1] is “strong level of apoptosis”.
For the sequence “VKKKKIKAEIKIGFWSRLINRLLEI (Synthetic construct Seq_29 fused to seq_8) [peptide 14]”, the “Fluorescence intensity of internalization compared with peptide 13” value is “slightly higher fluorescence intensity” with PBMC from CLL patients (CLL patients PBMC, 50 μM) and “slightly higher fluorescence intensity” with PBMC from healthy donors (healthy donors PBMC, 50 μM). In addition, the “FITC labelled cells detected (FACS)” value in the assay on PBMC from CLL patients and in the assay with PBMC from healthy donors was “majority of FITC labelled cells is detected” throughout. Further, the “Fluorescence intensity of internalization (FACS)” value in the assay with MDA-MB231 cells [2] is given as “higher”. Moreover, the “PP1 detected in LRRK2 immunoprecipitates” value with LRRK2/PP1 interaction is recorded as “important decrease in PP1 detected”. In addition, the “Apoptosis induction (Annexin-V)” value in the assay on MDA-MB231 cells [1] was “strong level of apoptosis”.
